In US8247609B2, “Aminoacid derivatives containing a disulfanyl group in the form of mixed disulfanyl and aminopeptidase N inhibitors” (Pharamleads, priority 2005, dated 2012):
Where two headings read alike, the source gives them in different places.

Legend:
Solubility in solvents = assay type: physicochemical
[1] = test system: mice inoculated in their right paw with NCTC 2472 cells; assay: Osteosarcoma-induced thermal hyperalgesia, unilateral hot plate test; assay type: in vivo, mouse
From the text: The comparison and possible facilitation of compound 15 analgesic effect by Gabapentin was investigated on the animal model of bone cancer induced by intraosteal inoculation of NCTC2472 tumor cells (Honoré P. et al., Neuroscience 98 (2000), 585-588 Mendez L. et al. J. Neurosci. Methods 113 (2002), 91-97).
The methods used to measure the analgenisc effects (antihyperalgesia and allodynia) of various compounds of this animal model have been described in details and are used (Menendez L. et al. Brain Res. 969 (2003), 102-109) in these series of experiments.
Osteosarcoma-induced thermal hyperalgesia measured by the unilateral hot plate test was inhibited by the oral administration of compound 15 (25 mg/kg). This inhibitory effect peaked 20-40 min after compound 15 administration, disappearing at time 60 (FIG. 4A).
At this concentration the antagonist is unable to enter the brain supporting a peripheral analgesic effects of compound 15. ** p≦0.01. […]

male OF1 mice [2] = assay: Hot plate test (52° C., jump latency) in mice; assay type: in vivo, mouse; conditions: after administration per os of 200 m/kg (FIG. 2b)
[3] = test system: rat (male Sprague Dawley) with an inflamed paw; assay: Vocalization threshold on paw pressure, carrageenan-inflamed paw; assay type: in vivo; conditions: 100 mg/kg per os, 180 min after carrageenan, measured 20 min after administration
Method: b) Antinociceptive effect of compound 15 (100 mg/kg par os) on vocalization threshold when pressure is applied to the paw of a rat (male Sprague Dawley) with an inflamed paw, inflammation being induced by intraplantar injection of carrageenan.
Compound 15 and a vehicle (ethanol/polyethylene glycol (PEG) 400/water, 10/40/50) are administered 180 min after intraplantar injection of carrageenan (1% in saline solution).
The baseline for vocalization threshold when pressure is applied to the paw is measured before inflammation (B) and for the inflamed paw 20 min after injection of compound 15 or the vehicle. The results are given in table 3 and are expressed as mean±SEM, n=10. The differences observed are considered significant when the values of p are less than 0.05.

male OF1 mice [4] = assay: Hot plate test (52° C., jump latency) in mice; assay type: in vivo, mouse; conditions: for ED50: Mus musculus
Method: Hot plate test: this test relates to the licking and jumping reflex in mice on a plate heated at 52° C. (measurement of jump latency in the examples given). The results are expressed in % of maximum possible effect (% MPE), i.e., expressed as a percentage of analgesia, using the following equation:
Maximum latency time=240 seconds.
The results are expressed in term of mean±SEM. The differences observed are considered significant when the values of p are less than 0.05. The test used is an ANOVA test with a multiple comparison test.
Compound 15 is dissolved in a water/mannitol mixture (50 mg/ml). Jump latency times are measured 10 min after the injections by intravenous route.
Compound 15 is dissolved in a ethanol/Cremophor® EL/water mixture. Jump latency times are measured 10 min after intravenous injection.
Compound 15 is dissolved in an ethanol/PEG400/water 10/40/50 mixture.
Compounds 15 and A are dissolved in an ethanol/Cremophor EL/water 10/10/80 mixture. Jump latency times are measured 10 min after intravenous injection.
The analgesia produced by morphine or compound 15 in mice (male OF1) in the hot plate test (52° C.) was measured. Morphine in H2O/NaCl, 9/1000) or compound 15 dissolved in the vehicle EtOH/Cremophor El/water (10/10/80) is injected by IV. The results are measured 10 minutes after injection and latency time is 240 seconds (equation given in examples 15 and 17).
The analgesia produced by Δ^9 THC in mice (male OF1) in the plate hot test (52° C.) was measured. Δ^9 THC, dissolved in the vehicle EtOH/Cremophor EL/water (10/10/80), is injected by IV route. The results are measured 10 minutes after injection and latency time is 240 seconds (equation given in examples 15 and 17).
This test relates to the licking and jumping reflex in mice on a plate heated at 52° C. The results are expressed in % of maximum possible effect (% MPE), i.e., expressed as a percentage of analgesia, using the following equation:
Maximum latency time=240 s.
The mice weigh 25-30 grams.
Jump latency is measured 10 minutes after intravenous injection.

SMILES: CCOC(=O)OC(C)OC(=O)CNC(=O)C(CSSC[C@@H](N)CCSC)Cc1ccccc1 (stereo partly shown) [Compound 15]
- Solubility in ethanol/Tween®/water solvents (Solubility in solvents): soluble
- Time at which inhibitory effect disappears ([1]; 25 mg/kg oral): 60
- Time of peak inhibitory effect after administration ([1]; 25 mg/kg oral): 20 to 40 min
- Osteosarcoma-induced thermal hyperalgesia ([1]; 25 mg/kg oral (FIG. 4A)): inhibited
- Antihyperalgesic effect in presence of naloxone-methiodide ([1]; 25 mg/kg p.o. 20 min before testing, naloxone-methiodide 2 mg/kg i.p. 20 min before testing (FIG. 5)): completely inhibited
- Effect on thermal latencies, inoculated versus control paws ([1]; 25 mg/kg p.o., 20 min after administration (FIG. 4B)): exclusively increases the latencies measured in the inoculated right paws
- Antihyperalgesic effect when administered alone ([1]; compound 15 12.5 mg/kg 20 min before testing, or Gabapentin 6.25 mg/kg 60 min before testing): do not produce any antihyperalgesic effect
- Persistence of analgesic effect (male OF1 mice [2]): at least two hours
- Vocalization threshold [3]: 292.5 ± 20.1 g
- % analgesia (male OF1 mice [4]; 1 mg/kg IV, 10 min after injection (Table 6)): 46.4 ± 5.6 %
- % analgesia (male OF1 mice [4]; 2.5 mg/kg IV, 10 min after injection (Table 6)): 56.3 ± 6.9 %
- % analgesia (male OF1 mice [4]; 2.5 mg/kg IV, ethanol/Cremophor EL/water, 10 min after injection): 56.2 ± 6.9 %
- % analgesia (male OF1 mice [4]; 2.5 mg/kg IV, ethanol/Tween 20/water, 10 min after injection): 48.4 ± 10.2 %
- % analgesia (male OF1 mice [4]; 2.5 mg/kg IV, ethanol/Tween 80/water, 10 min after injection): 44.7 ± 6.2 %
- % analgesia (male OF1 mice [4]; 5 mg/kg IV, 10 min after injection (Table 6)): 87.6 ± 4.6 %
- % analgesia (male OF1 mice [4]; 5 mg/kg IV, ethanol/Cremophor EL/water 10/10/80, 10 min after injection (Table 5)): 87.6 ± 4.6 %
- % analgesia (male OF1 mice [4]; 10 mg/kg IV, water/mannitol vehicle, 10 min after injection, male mice): 33.4 ± 7.5 %
- % analgesia (male OF1 mice [4]; 20 mg/kg IV, water/mannitol vehicle, 10 min after injection, male mice): 59.2 ± 9.6 %
- % analgesia (male OF1 mice [4]; 40 mg/kg IV, water/mannitol vehicle, 10 min after injection, male mice): 90.2 ± 7.0 %
- ED50 (male OF1 mice [4]; 10 min, IV, ethanol/Cremophor EL/water, 10 min after injection (FIG. 1), read-out: ED50 (analgesic response)): 1.9 ± 0.4 mg/kg
- ED50 (male OF1 mice [4]; 10 min, IV, water/mannitol vehicle, 10 min after injection, read-out: Effective dose 50, ED50): 16.1 mg/kg
- ED50 (male OF1 mice [4]; per os 20 min before test, ethanol/PEG400/water 10/40/50 (FIG. 2a), read-out: ED50 (analgesic effect)): 135 mg/kg
